What was measured:
[1] = 101 kPa, Liquid
[2] = xn = mol fraction of the nth substance listed; details: 101 kPa, Liquid

CC(=O)OC(C)(C)C [1,1-dimethylethyl ethanoate]
[1]
Details | mass density [kg/m3] | speed of sound [m/s]
298.15 K | 859.75 | 1091
303.15 K | 853.94 | 1078
308.15 K | 848.34 | 1049
313.15 K | 842.67 | 1040

CC(=O)OC(C)(C)C [1,1-dimethylethyl ethanoate] + CO
[2]
Details | mass density, 298.15 K [kg/m3] | mass density, 303.15 K [kg/m3] | mass density, 308.15 K [kg/m3] | mass density, 313.15 K [kg/m3] | speed of sound, 298.15 K [m/s] | speed of sound, 303.15 K [m/s] | speed of sound, 308.15 K [m/s] | speed of sound, 313.15 K [m/s]
x1 = 0.1004 | 806.42 | 801.36 | 796.06 | 791.34 | 1107 | 1090 | 1069 | 1055
x1 = 0.1997 | 819.95 | 814.66 | 809.27 | 804.29 | 1105 | 1089 | 1065 | 1052
x1 = 0.2996 | 829.79 | 824.37 | 818.91 | 813.75 | 1105 | 1089 | 1063 | 1051
x1 = 0.3916 | 836.73 | 831.21 | 825.7 | 820.41 | 1104 | 1088 | 1061 | 1049
x1 = 0.5003 | 843.12 | 837.52 | 831.98 | 826.57 | 1103 | 1087 | 1059 | 1048
x1 = 0.5988 | 847.72 | 842.05 | 836.48 | 831 | 1102 | 1086 | 1057 | 1046
x1 = 0.6994 | 851.57 | 845.85 | 840.26 | 834.72 | 1100 | 1085 | 1055 | 1045
x1 = 0.7985 | 854.72 | 848.96 | 843.36 | 837.77 | 1097 | 1083 | 1053 | 1043
x1 = 0.8992 | 857.43 | 851.65 | 846.04 | 840.4 | 1094 | 1080 | 1051 | 1041
x1 = 1 | 859.75 | 853.94 | 848.34 | 842.67 | 1091 | 1078 | 1049 | 1040

CCCCOC(C)=O [butyl ethanoate]
[1]
Details | mass density [kg/m3] | speed of sound [m/s]
298.15 K | 876.18 | 1190
303.15 K | 871.27 | 1173
308.15 K | 865.41 | 1150
313.15 K | 860.46 | 1131

CCCCOC(C)=O [butyl ethanoate] + CO
[2]
Details | mass density, 298.15 K [kg/m3] | mass density, 303.15 K [kg/m3] | mass density, 308.15 K [kg/m3] | mass density, 313.15 K [kg/m3] | speed of sound, 298.15 K [m/s] | speed of sound, 303.15 K [m/s] | speed of sound, 308.15 K [m/s] | speed of sound, 313.15 K [m/s]
x1 = 0.1004 | 810.58 | 805.75 | 800.39 | 795.84 | 1130 | 1112 | 1092 | 1076
x1 = 0.2329 | 831.49 | 826.61 | 821.09 | 816.38 | 1151 | 1132 | 1111 | 1093
x1 = 0.2996 | 839.18 | 834.29 | 828.66 | 823.89 | 1160 | 1140 | 1118 | 1100
x1 = 0.4008 | 848.46 | 843.52 | 837.84 | 833.02 | 1171 | 1151 | 1128 | 1109
x1 = 0.498 | 855.46 | 850.52 | 844.77 | 839.91 | 1179 | 1159 | 1136 | 1116
x1 = 0.5988 | 861.3 | 856.34 | 850.55 | 845.66 | 1185 | 1165 | 1141 | 1122
x1 = 0.6994 | 866.05 | 861.1 | 855.28 | 850.36 | 1189 | 1170 | 1145 | 1126
x1 = 0.7912 | 869.71 | 864.74 | 858.91 | 853.98 | 1191 | 1172 | 1148 | 1128
x1 = 0.8992 | 873.3 | 868.38 | 862.52 | 857.58 | 1191 | 1173 | 1149 | 1130
x1 = 1 | 876.18 | 871.27 | 865.41 | 860.46 | 1190 | 1173 | 1150 | 1131

CO [methanol]
[1]
Details | mass density [kg/m3] | speed of sound [m/s]
298.15 K | 786.38 | 1109
303.15 K | 781.65 | 1092
308.15 K | 776.52 | 1074
313.15 K | 772.15 | 1060

CO [methanol] + CC(=O)OC(C)(C)C
[2], x2 = 0
Details | mass density [kg/m3] | speed of sound [m/s]
298.15 K | 786.38 | 1109
303.15 K | 781.65 | 1092
308.15 K | 776.52 | 1074
313.15 K | 772.15 | 1060

CO [methanol] + CCCCOC(C)=O
[2], x2 = 0
Details | mass density [kg/m3] | speed of sound [m/s]
298.15 K | 786.38 | 1109
303.15 K | 781.65 | 1092
308.15 K | 776.52 | 1074
313.15 K | 772.15 | 1060

From the NIST ThermoML archive (doi:10.1021/je900442b)
